Results: patent publication US10736343B2, “Antimicrobial formulations with pelargonic acid” (ANITOX CORPORATION, priority 2011, dated 2020)
In brackets after ≈: the same amount, converted by molar mass. Where two headings read alike, the source gives them in different places.

What was measured:
pears and apples = conditions: 12.5 μL/L, twenty four hours to seven days exposure; cited from earlier work
E. coli = conditions: cited from earlier work
[1] = system: B. cereus, S. typhimurium, V. parahaemolyticus, L. monocytogenes, S. aureus and E. coli O157:H7; conditions: cited from earlier work
[2] = system: Helicobacter pylori and S. cholerasuis; conditions: cited from earlier work
[3] = rat, cited from earlier work
[4] = rat, in vivo; cited from earlier work
Phoma mycelium = conditions: cited from earlier work
Salmonella typhimurium [5] = assay: Residual activity in treated poultry mash feed contaminated after treatment (Example 6); type: cell-based; conditions: for % Reduction at 13 Days: feed contaminated 13 days post treatment
Procedure: Formula 1 from Example 3 composed of 25% trans-2-hexenal, 5% pelargonic acid and 70% aqueous organic acids was compared to trans-2-hexenal for residual activity in feed. Poultry mash feed was treated with 0.1, 0.25, 0.5 or 1.0 kg/ton of hexenal compared to 1 kg/ton of the hexenal: pelargonic acid combination product (0.25 kg/ton of hexenal), At 1, 6 and 13 days post treatment, feed was contaminated with a meat and bone meal inoculum of Salmonella typhimurium at a level of 10^3 cfu/g of feed. After 24 hours, 10 g of subsamples of the untreated and treated feed were suspended in 90 ml Butterfield buffer. Dilutions were plated on XLT-4 agar and incubated at 37° C. for 48 hours before counting Salmonella colonies.

Penicillium expansum = conditions: cited from earlier work
[6] = system: A. flavus, P. notatum, A. alternate, F. oxysporum, Cladosporium species, B. subtilis and A. tumerfaciens; conditions: cited from earlier work
mold = conditions: 0.86 or 1.71 mmol per 1.1 L container for 2 weeks; cited from earlier work
P. syringae pathovars = conditions: cited from earlier work
yeast (10^5 CFU/bottle) = conditions: cited from earlier work
[7] = system: apricots, peaches and nectarines; conditions: cited from earlier work
Salmonella typhimurium [8] = assay: In vitro test of aldehyde / hexenal / pelargonic acid formulations against Salmonella typhimurium suspension (Example 7); type: cell-based; conditions: for ability to replace trans-2-hexenal (in words): At both 5% and 10% pelargonic acid
Procedure: Seven aldehydes (butyraldehyde, citral, undecylenic aldehyde, decadienal, cinnamaldehyde, decanal and furfural) were blended with trans-2-hexenal, pelargonic acid, propionic acid and acetic acid as presented in Table 9. A 20% (X−1) and a 25% (F18) hexanal: organic acid product were included as positive controls. […] Solutions were vortexed for 10 seconds to uniformly mix the solution. There were three replicate tubes per treatment. […] The solutions were vortexed, incubated at room temperature for 24 hours and then plated on XLT-4 agar for 48 hours before counting Salmonella colonies.

[9] = system: Salmonella typhimurium (ATCC #14028); assay: Salmonella typhimurium suspension in test tubes with formaldehyde and/or pelargonic acid, plate count (Example 1); type: cell-based
Procedure: (§1) Solutions were vortexed for 10 seconds to ensure mixing. There were three replicate tubes per treatment. A suspension of Salmonella typhimurium (10^3 cfu/ml, ATCC #14028) was added to three test tubes containing each formulation. The solutions were vortexed, incubated at room temperature for 24 hours plated on SMA (Standard Methods Agar) for 24 hours before counting Salmonella colonies.

M. gypseum = conditions: cited from earlier work
[10] = system: Salmonella typhimurium (ATCC #14028); assay: Salmonella typhimurium suspension in test tubes with formaldehyde and/or pelargonic acid, plate count (Example 2); type: cell-based
Procedure: as §1, with “24 hours and plated on” for “24 hours plated on”

Salmonella typhimurium [11] = assay: In vitro test of five formulations against Salmonella typhimurium suspension (Example 3); type: cell-based; conditions: pelargonic acid at 10% of formula
Procedure: Formulations were added to test tubes at concentrations of 0.01% and 0.05%. Solutions were vortexed for 10 seconds to ensure mixing. There were three replicate tubes per treatment.
A suspension of Salmonella typhimurium (10^4 cfu/ml) was added to three test tubes containing the different dilutions of each formulation. The tubes were vortexed, incubated at room temperature for 24 hours and then the solution was plated on SMA (Standard Methods Agar) for 48 hours before counting Salmonella colonies.

parasite C. irritans = conditions: cited from earlier work
[12] = system: Staphylococcus aureus, E. coli and Salmonella typhimurium; conditions: cited from earlier work
[13] = formaldehyde 0 %, pelargonic acid 0.00125 %
[14] = formaldehyde 0 %, pelargonic acid 0.0025 %
[15] = At 5% pelargonic acid, aldehyde by itself
[16] = At 10% pelargonic acid, 20% aldehyde
[17] = formaldehyde 0.00312 %, pelargonic acid 0 %
[18] = formaldehyde 0.00625 %, pelargonic acid 0 %
[19] = formaldehyde 0.0125 %, pelargonic acid 0 %
[20] = formaldehyde 0.025 %, pelargonic acid 0 %

SMILES: CCC/C=C/C=O [trans-2-hexenal]
- fruit quality (in words) (pears and apples): did not affect fruit appearance, color, firmness, soluble solids content or titratable acidity
- concentration that completely inhibited proliferation (E. coli): 930 micrograms/L of air
- effective concentration [1]: 247 mg/L
- minimum biocidal activity [2]: 800 µg/mL
- minimum inhibitory activity [2]: 400 µg/mL
- body weight and intake (in words) ([3]; 4000 ppm in diet, 13 wk): reduction in body weight and intake, but it was not significant
- hematological parameters or organ weights (in words) ([3]; dietary levels 260, 640, 1600 or 4000 ppm for 13 wk): did not induce any changes in hematological parameters or organ weights
- toxic levels in rats relative to normal intake by humans [4]: 30 times
- concentration effective at inhibiting growth (Phoma mycelium): 250 µg/mL
- % Reduction at 13 Days (Salmonella typhimurium [5]; 0.10 kg/ton hexenal): 0%
- % Reduction at 13 Days (Salmonella typhimurium [5]; 0.25 kg/ton hexenal): 0%
- % Reduction at 13 Days (Salmonella typhimurium [5]; 0.50 kg/ton hexenal): 77.4%
- % Reduction at 13 Days (Salmonella typhimurium [5]; 1.00 kg/ton hexenal): 87.1%
- concentration effective on controlling (Penicillium expansum): 12.5 μL/L
- concentration that completely inhibited the growth [6]: 8 ng/L air
- control of mold (in words) (mold): showed promise for control of mold
- concentration that completely inhibited proliferation (P. syringae pathovars): 570 ug/L of air
- concentration necessary to stabilize beverages (yeast (10^5 CFU/bottle); beverages not thermally treated): 35 ppm
- concentration controlling yeast in beverages (yeast (10^5 CFU/bottle); with thermal treatment (56° C. for 20 min)): 25 ppm
- phytotoxicity (in words) ([7]; apricots): not phytotoxic
- phytotoxicity (in words) ([7]; peaches and nectarines at 40 μL/L): phytotoxic

SMILES: CCCCCCCCCC=O [decanal]
- ability to replace trans-2-hexenal (in words) (Salmonella typhimurium [8]): can replace trans-2-hexenal

SMILES: C=CCCCCCCCCC=O [undecylenic aldehyde]
- ability to replace trans-2-hexenal (in words) (Salmonella typhimurium [8]): can replace trans-2-hexenal

SMILES: CCCCCC=CC=CC=O [decadienal aldehyde, 2-4-decadienal]
- ability to replace trans-2-hexenal (in words) (Salmonella typhimurium [8]): can replace trans-2-hexenal

SMILES: CCCCCCCCC(=O)O [Pelargonic acid, Pelargonic acid (nonanoic acid)]
- bactericidal effect (in words) ([9]; at the highest dose tested): not bactericidal
- Salmonella % reduction ([9]; formaldehyde 0 %, pelargonic acid 0.000312 %): 0%
- Salmonella % reduction ([9]; formaldehyde 0 %, pelargonic acid 0.000625 %): 0%
- Salmonella % reduction [9, 13]: 0%
- Salmonella % reduction [9, 14]: 0%
- effect on the effectiveness of formaldehyde (in words) ([9]; pelargonic acid at 0.00125 and 0.0025%): did appear to increase the effectiveness of formaldehyde
- minimum inhibitory concentration (MIC) (M. gypseum; in liquid media): 50 µg/mL (≈ 316 µM)
- minimum inhibitory concentration (MIC) (M. gypseum; on solid media): 40 µg/mL (≈ 253 µM)
- Salmonella % reduction [10, 13]: 2.1%
- Salmonella % reduction [10, 14]: 8.8%
- Salmonella % reduction ([10]; formaldehyde 0 %, pelargonic acid 0.005 %): 96.5%
- Salmonella % reduction ([10]; formaldehyde 0 %, pelargonic acid 0.01 %): 100%
- effect on bactericidal efficacy of formaldehyde (in words) ([10]; pelargonic acid 0.00125% and 0.0025% mixed with formaldehyde): the bactericidal efficacy of formaldehyde was improved
- impact on Salmonella reduction (in words) ([10]; pelargonic acid alone at 0.00125% and 0.0025%): did not have a significant impact on Salmonella reduction
- effect on efficacy of trans-2-hexenal (in words) (Salmonella typhimurium [11]): increases the efficacy of trans-2-hexenal
- potentiation of aldehyde efficacy (in words) (Salmonella typhimurium [8]): potentiates the efficacy of each individual aldehyde and aldehyde combination
- effectiveness against Salmonella versus trans-2-hexenal alone (in words) (Salmonella typhimurium [5]; addition of pelargonic acid (5%) to trans-2-hexenal): better effectiveness against Salmonella than trans-2-hexenal by itself
- control of parasite growth (in words) (parasite C. irritans): effective in controlling the growth

SMILES: CC(C)=CCCC(C)=CC=O [citral]
- effectiveness compared with trans-2-hexenal (in words) (Salmonella typhimurium [8]; [15]): not as effective as trans-2-hexenal
- effectiveness compared with trans-2-hexenal (in words) (Salmonella typhimurium [8]; [16]): as effective as 20% trans-2-hexenal
- ability to replace trans-2-hexenal (in words) (Salmonella typhimurium [8]): can partially replace trans-2-hexenal
- concentration equivalent to 25 ppm trans-2-hexenal and thermal treatment (yeast (10^5 CFU/bottle)): 100-120 ppm

SMILES: O=Cc1ccco1 [furfural]
- ability to replace trans-2-hexenal (in words) (Salmonella typhimurium [8]): can replace trans-2-hexenal

SMILES: CC/C=C/CC=O [(3E)-hexenal]
- level effective in controlling [12]: 3 to 30 µg/mL

SMILES: C=O [Formaldehyde]
- Salmonella % reduction [9, 17]: 17.3%
- Salmonella % reduction [9, 18]: 39.3%
- Salmonella % reduction [9, 19]: 59.0%
- Salmonella % reduction [9, 20]: 90.8%
- Salmonella % reduction [10, 17]: 17.7%
- Salmonella % reduction [10, 18]: 41.0%
- Salmonella % reduction [10, 19]: 50.5%
- Salmonella % reduction [10, 20]: 88.3%

SMILES: CCCCCCCCCC(=O)O [capric acid]
- minimum inhibitory concentration (MIC) (M. gypseum; in liquid media): 75 µg/mL (≈ 435 µM)
- minimum inhibitory concentration (MIC) (M. gypseum; on solid media): 20 µg/mL (≈ 116 µM)

SMILES: CCCC=O [butyraldehyde]
- effectiveness compared with trans-2-hexenal (in words) (Salmonella typhimurium [8]; [15]): not as effective as trans-2-hexenal
- effectiveness compared with trans-2-hexenal (in words) (Salmonella typhimurium [8]; [16]): as effective as 20% trans-2-hexenal
- ability to replace trans-2-hexenal (in words) (Salmonella typhimurium [8]): can partially replace trans-2-hexenal

SMILES: O=CC=Cc1ccccc1 [cinnamaldehyde]
- ability to replace trans-2-hexenal (in words) (Salmonella typhimurium [8]): can replace trans-2-hexenal
